Measurements: patent US20180228801A1, “Method for Enhancing Learning Ability and Memory of Patients with Alzheimer's Disease using Mocetinostat” (National Taiwan Normal University, priority 2017, published 2018)

Assays:
[1] = test system: primary hippocampus neurons; assay: Primary hippocampus neurons damaged by oligomeric Aβ25-35, immune-fluorescent staining (NeuN, MAP2); assay type: cell-based, mouse (C57BL/6J); conditions: 48 hours after 50 μM oligomeric Aβ25-35, vs group treated with Aβ25-35
Experimental: (§1) The method of culturing mouse primary hippocampus neurons follow from a modified method from the prior art (Seibenhener and Wooten, 2012), including: obtaining a 16-18 day old embryo from a C57BL/6J strain pregnant female mouse after euthanasia, obtaining hippocampus tissue of the embryo and digesting the tissue with 0.05% trypsin at 37° C. for 15 minutes, and seeding 3×10^4 cells per well in a 48-well plate coated with Poly-L-lysine (100 μg/mL); wherein the components of the medium includes: Neurobasal Medium® (Gibco™; ThermoFisher Scientific, USA) adding 2% of B-27® Additive (Gibco™; ThermoFisher), 0.5 mM of glutamine (Gibco™; ThermoFisher), 25 μM of glutamate (Sigma-Aldrich, USA), 20 unit/mL of penicillin/streptomycin solution (Gibco™; ThermoFisher Scientific, USA), 1 mM of 4-(2-hydroxyethyl)-1-piperazineethanesulfonic acid) (HEPES) (Sigma-Aldrich), and 1% of heat inactivated Donor Horse Serum (Gibco™; ThermoFisher). Primary hippocampus neurons are cultured in an incubator in an environment of 37° C. and 5% CO2.
In some embodiments, experiments should be performed when said cells are in an Alzheimer's disease state. […] Further, 50 μM of oligomeric Aβ25-35 are applied for 1 hour, and then a high dose (70 nM) and low dose (35 nm) of MGCD0103 is applied for 48 hours on day 9. Finally, the cells are collected for immune-fluorescent staining.
The collected cells are analyzed with immune-fluorescence staining. First, fixing the cells with 4% of paraformaldehyde (PFA) (Sigma-Aldrich) for 30 minutes; rinsing the cells three times with PBST with a time interval of 10 minutes so as to remove remaining PFA; blocking the cells with 10% fetal bovine serum (FBS) for 2 hours; adding NeuN (1:1000; Milipore, USA) and MAP2 (1:1000; Milipore, USA) primary antibodies and allowing reaction at 4° C. for 16 hours; then allowing reaction with secondary antibodies at 37° C. for 2 hours; finally, staining nucleus with […] (DAPI) (Sigma-Aldrich) and analyzing to obtain values such as numbers of neurons, lengths of synapses, and numbers of branches with a High Content Micro-Imaging Acquisition and Screening System and MetaXpress (purchased from Molecular Devices).

[2] = test system: Aβ accumulation in hippocampal CA1; assay: Immunohistochemical staining, Aβ accumulation (6E10); assay type: in vivo, mice (C57BL/6J); conditions: Aβ25-35 mice
Experimental: (§2) Further, in some embodiments of the present invention, C57BL/6J strain male mice (12 week old) are used as a subject in need. After mice are allowed to adapt to the environment for 6 days, mice are anesthetized with Avertin (0.4 g/kg; purchased from Sigma). The mice are fixed on a stereotactic apparatus for operation, followed by injecting oligomeric Aβ25-35 (10 nM, 3 μL) into bilateral hippocampal CA1 (AP: […] relative to the bregma; ML: ±[…] relative to the midline; DV: […] relative to the skull) on day 7. MGCD0103 and equal volume of vehicle (saline) are intraperitoneal (i.p.) injected once a day from day 8, the day after said operation, for 29 days. On day 24, the Open Field Test is performed; on day 26, the EPM is performed; on day 28, the Y-maze is performed; on days 30 to 36, MWM is performed; and on day 37, mice are euthanized for pathological analysis.
(§3) The inventor collects the brain tissue by perfusion followed by fixing and dehydrating, then, 30 μm frozen sections are obtained by a freezing microtome (CMS3050S, Leica). […] After that, avidin-biotin complex (ABC) is detected 1 hour after staining. […] After all sections have been stained, they are then fixed on a slide, dried, dehydrated, mounted, and photographed for quantity (performed by Image Pro Plus, Meida Cyberetics, USA).

Tau protein at Thr-205 = assay: Western blot, Tau phosphorylation at Thr-205; assay type: in vivo, mice (C57BL/6J); conditions: Aβ25-35 mice, hippocampus
Experimental: as §2

[3] = test system: primary hippocampus neurons; assay: Cell viability analysis (MTT assay); assay type: cell-based, mouse (C57BL/6J); conditions: Mus musculus, Neuron; primary hippocampus neurons treated on day 9, viability after 48 hours; read-out: IC50 dose, cell viability
Experimental: as §1, with “Primary hippocampus neurons are cultured in an incubator in an environment of 37° C. and 5% CO2.” left out
(3-(4,5-Dimethylthiazol-2-yl)-2,5-diphenyltetrazolium bromide, MTT) (Sigma, USA) has an original color of yellow, which is able to carry out a reducing reaction by a succinate dehydrogenase of mitochondria within living cells that breaks the tetrazolium ring thereof so as to form formazan, which has a violet color. […] Finally, the cell viability may be analyzed by detecting the changes of violet color (O.D. 570) by a spectrophotometer. […]

astrocytes = assay: Immunohistochemical staining, astrocytes in hippocampus; assay type: in vivo, mice (C57BL/6J); conditions: Aβ25-35 mice
Experimental: as §2, §3

synaptophysin = assay: Western blot, synaptophysin; assay type: in vivo, mice (C57BL/6J); conditions: Aβ25-35 mice, hippocampus
Experimental: as §2

With Nc1ccccc1NC(=O)c1ccc(CNc2nccc(-c3cccnc3)n2)cc1 [MGCD0103, N-(2-Aminophenyl)-4-[[(4-pyridin-3-ylpyrimidin-2-yl)amino]methyl] benzamide] the lengths of neurites ([1]; high dose (70 nM)) was “significantly improved”, the “numbers of neuron cells (NeuN+)” value ([1]; high dose (70 nM)) was “significantly improved” and the lengths of neurites ([1]; low dose (35 nM)) was “significantly improved”. The “numbers of neuron cells (NeuN+)” value ([1]; low dose (35 nM)) was “significantly improved”, the “Aβ accumulation within the hippocampal CA1” value [2] was “relieved” and the “phosphorylation expression of Tau protein at Thr-205” value (Tau protein at Thr-205) was “decreased”. For the same molecule, the IC50 [3] was ~7 µM, the numbers of astrocytes (astrocytes) was “significantly decrease” and the expression of synaptophysin (synaptophysin) was “significantly increased”.
